Measurements: patent publication US9365587B2, “Synthesis of carbamoylpyridone HIV integrase inhibitors and intermediates” (Shionogi & Co., Ltd., priority 2008, dated 2016)

How the values were obtained:
Conditions in all cases: crystal
[1] = stability of the crystals against heat or light; format: physicochemical
[2] = pharmacokinetics of the crystals (BA, Cmax, Tmax); format: in vivo
[3] = solubility of the crystals in water or saline; format: physicochemical

In the case of `C[C@@H]1CCO[C@H]2Cn3cc(C(=O)NCc4ccc(F)cc4F)c(=O)c(O)c3C(=O)N12` [Compound 13], the “stability against heat or light” value [1] is reported as “high”, the “bioavailability (BA)” value [2] is reported as “high” and the “maximum drug concentration (Cmax)” value [2] is reported as “high”. The “maximum drug concentration time (Tmax)” value [2] was “short” and the “solubility in water or saline” value [3] was “high”.
